Laboratory results published in the CheMixHub viscosity set.
± gives the uncertainty stated by the source.

Assay: xn = mol fraction of the nth substance listed

Compound: OCCO + O
- viscosity (293.15 K, 100 kPa, x1 = 0.3): 5.035 ± 0.015 mPa·s
- viscosity (293.15 K, 101 kPa, x1 = 0.0744): 1.724 ± 0.023 mPa·s
- viscosity (293.15 K, 101 kPa, x1 = 0.1209): 2.258 ± 0.03 mPa·s
- viscosity (293.15 K, 101.3 kPa, x1 = 0.031): 1.28 ± 0.03 mPa·s
- viscosity (293.15 K, 101.3 kPa, x1 = 0.068): 1.79 ± 0.05 mPa·s
- viscosity (293.15 K, 101.3 kPa, x1 = 0.11): 1.9 ± 0.05 mPa·s
- viscosity (293.15 K, 101.3 kPa, x1 = 0.14): 2.47 ± 0.07 mPa·s
- viscosity (293.15 K, 101.3 kPa, x1 = 0.16): 2.8 ± 0.08 mPa·s
- viscosity (293.15 K, 101.3 kPa, x1 = 0.19): 3.14 ± 0.08 mPa·s
- viscosity (293.15 K, 101.3 kPa, x1 = 0.22): 3.66 ± 0.1 mPa·s
- viscosity (293.15 K, 101.3 kPa, x1 = 0.26): 4.09 ± 0.11 mPa·s
- viscosity (293.15 K, 101.3 kPa, x1 = 0.3): 4.68 ± 0.13 mPa·s
- viscosity (293.15 K, 101.3 kPa, x1 = 0.4): 6.5 ± 0.18 mPa·s
- viscosity (293.15 K, 101.3 kPa, x1 = 0.54): 9.03 ± 0.24 mPa·s
- viscosity (293.15 K, 101.3 kPa, x1 = 0.72): 13.6 ± 0.4 mPa·s
- viscosity (298.15 K, 101 kPa, x1 = 0.0414): 1.22 ± 0.01 mPa·s
- viscosity (298.15 K, 101 kPa, x1 = 0.118): 1.97 ± 0.02 mPa·s
- viscosity (298.15 K, 101 kPa, x1 = 0.1553): 2.36 ± 0.02 mPa·s
- viscosity (298.15 K, 101 kPa, x1 = 0.3385): 4.73 ± 0.03 mPa·s
- viscosity (298.15 K, 101 kPa, x1 = 0.3521): 4.96 ± 0.04 mPa·s
- viscosity (298.15 K, 101 kPa, x1 = 0.4133): 5.94 ± 0.04 mPa·s
- viscosity (298.15 K, 101 kPa, x1 = 0.5333): 7.96 ± 0.06 mPa·s
- viscosity (298.15 K, 101 kPa, x1 = 0.6376): 9.9 ± 0.07 mPa·s
- viscosity (298.15 K, 101 kPa, x1 = 0.7762): 12.56 ± 0.09 mPa·s
- viscosity (298.15 K, 101 kPa, x1 = 0.8769): 14.49 ± 0.1 mPa·s
- viscosity (298.15 K, 101 kPa, x1 = 0.907): 15.05 ± 0.1 mPa·s
- viscosity (298.15 K, 101 kPa, x2 = 0.0034): 16.94 ± 0.12 mPa·s
- viscosity (298.15 K, 101.33 kPa, x1 = 0.1753): 2.58 ± 0.07 mPa·s
- viscosity (298.15 K, 101.33 kPa, x1 = 0.3316): 4.73 ± 0.12 mPa·s
- viscosity (298.15 K, 101.33 kPa, x1 = 0.5615): 8.36 ± 0.22 mPa·s
- viscosity (303.15 K, 101.3 kPa, x1 = 0.031): 0.92 ± 0.03 mPa·s
- viscosity (303.15 K, 101.3 kPa, x1 = 0.068): 1.27 ± 0.03 mPa·s
- viscosity (303.15 K, 101.3 kPa, x1 = 0.11): 1.43 ± 0.04 mPa·s
- viscosity (303.15 K, 101.3 kPa, x1 = 0.14): 1.87 ± 0.05 mPa·s
- viscosity (303.15 K, 101.3 kPa, x1 = 0.16): 2.09 ± 0.06 mPa·s
- viscosity (303.15 K, 101.3 kPa, x1 = 0.19): 2.34 ± 0.06 mPa·s
- viscosity (303.15 K, 101.3 kPa, x1 = 0.22): 2.7 ± 0.07 mPa·s
- viscosity (303.15 K, 101.3 kPa, x1 = 0.26): 2.99 ± 0.08 mPa·s
- viscosity (303.15 K, 101.3 kPa, x1 = 0.3): 3.38 ± 0.09 mPa·s
- viscosity (303.15 K, 101.3 kPa, x1 = 0.4): 4.59 ± 0.12 mPa·s
- viscosity (303.15 K, 101.3 kPa, x1 = 0.54): 6.29 ± 0.17 mPa·s
- viscosity (303.15 K, 101.3 kPa, x1 = 0.72): 9.22 ± 0.25 mPa·s
- viscosity (303.15 K, 101.33 kPa, x1 = 0.0003): 0.778 ± 0.011 mPa·s
- viscosity (303.15 K, 101.33 kPa, x1 = 0.0009): 0.781 ± 0.011 mPa·s
- viscosity (303.15 K, 101.33 kPa, x1 = 0.0059): 0.808 ± 0.011 mPa·s
- viscosity (303.15 K, 101.33 kPa, x1 = 0.01): 0.834 ± 0.011 mPa·s
- viscosity (303.15 K, 101.33 kPa, x1 = 0.0136): 0.856 ± 0.012 mPa·s
- viscosity (303.15 K, 101.33 kPa, x1 = 0.0616): 1.18 ± 0.015 mPa·s
- viscosity (303.15 K, 101.33 kPa, x1 = 0.1054): 1.529 ± 0.02 mPa·s
- viscosity (303.15 K, 101.33 kPa, x1 = 0.1634): 2.03 ± 0.025 mPa·s
- viscosity (303.15 K, 101.33 kPa, x1 = 0.1935): 2.348 ± 0.029 mPa·s
- viscosity (303.15 K, 101.33 kPa, x1 = 0.2969): 3.435 ± 0.042 mPa·s
- viscosity (303.15 K, 101.33 kPa, x1 = 0.3955): 4.638 ± 0.056 mPa·s
- viscosity (303.15 K, 101.33 kPa, x1 = 0.4982): 6 ± 0.069 mPa·s
- viscosity (303.15 K, 101.33 kPa, x1 = 0.5873): 7.264 ± 0.08 mPa·s
- viscosity (303.15 K, 101.33 kPa, x1 = 0.6734): 8.539 ± 0.092 mPa·s
- viscosity (303.15 K, 101.33 kPa, x1 = 0.7944): 10.39 ± 0.11 mPa·s
- viscosity (303.15 K, 101.33 kPa, x1 = 0.8719): 11.58 ± 0.12 mPa·s
- viscosity (303.15 K, 101.33 kPa, x1 = 0.941): 12.69 ± 0.13 mPa·s
- viscosity (303.15 K, 101.33 kPa, x2 = 0.0134): 13.35 ± 0.14 mPa·s
- viscosity (308.15 K, 101.33 kPa, x1 = 0.0003): 0.706 ± 0.01 mPa·s
- viscosity (308.15 K, 101.33 kPa, x1 = 0.0009): 0.709 ± 0.01 mPa·s
- viscosity (308.15 K, 101.33 kPa, x1 = 0.0059): 0.733 ± 0.01 mPa·s
- viscosity (308.15 K, 101.33 kPa, x1 = 0.01): 0.752 ± 0.01 mPa·s
- viscosity (308.15 K, 101.33 kPa, x1 = 0.0136): 0.774 ± 0.011 mPa·s
- viscosity (308.15 K, 101.33 kPa, x1 = 0.0616): 1.044 ± 0.014 mPa·s
- viscosity (308.15 K, 101.33 kPa, x1 = 0.1054): 1.326 ± 0.017 mPa·s
- viscosity (308.15 K, 101.33 kPa, x1 = 0.1634): 1.756 ± 0.022 mPa·s
- viscosity (308.15 K, 101.33 kPa, x1 = 0.1935): 2.016 ± 0.025 mPa·s
- viscosity (308.15 K, 101.33 kPa, x1 = 0.2969): 2.919 ± 0.036 mPa·s
- viscosity (308.15 K, 101.33 kPa, x1 = 0.3955): 3.905 ± 0.047 mPa·s
- viscosity (308.15 K, 101.33 kPa, x1 = 0.4982): 5.004 ± 0.06 mPa·s
- viscosity (308.15 K, 101.33 kPa, x1 = 0.5873): 6.04 ± 0.069 mPa·s
- viscosity (308.15 K, 101.33 kPa, x1 = 0.6734): 7.077 ± 0.079 mPa·s
- viscosity (308.15 K, 101.33 kPa, x1 = 0.7944): 8.555 ± 0.092 mPa·s
- viscosity (308.15 K, 101.33 kPa, x1 = 0.8719): 9.501 ± 0.1 mPa·s
- viscosity (308.15 K, 101.33 kPa, x1 = 0.941): 10.35 ± 0.11 mPa·s
- viscosity (308.15 K, 101.33 kPa, x2 = 0.2029): 8.051 ± 0.17 mPa·s
- viscosity (308.15 K, 101.33 kPa, x2 = 0.3005): 6.899 ± 0.15 mPa·s
- viscosity (308.15 K, 101.33 kPa, x2 = 0.3986): 5.846 ± 0.13 mPa·s
- viscosity (308.15 K, 101.33 kPa, x2 = 0.5012): 4.779 ± 0.11 mPa·s
- viscosity (308.15 K, 101.33 kPa, x2 = 0.5999): 3.798 ± 0.088 mPa·s
- viscosity (308.15 K, 101.33 kPa, x2 = 0.6987): 2.866 ± 0.067 mPa·s
- viscosity (308.15 K, 101.33 kPa, x2 = 0.8008): 1.998 ± 0.048 mPa·s
- viscosity (308.15 K, 101.33 kPa, x2 = 0.8947): 1.315 ± 0.033 mPa·s
- viscosity (313.15 K, 101.3 kPa, x1 = 0.031): 0.8 ± 0.02 mPa·s
- viscosity (313.15 K, 101.3 kPa, x1 = 0.068): 1.04 ± 0.03 mPa·s
- viscosity (313.15 K, 101.3 kPa, x1 = 0.11): 1.08 ± 0.03 mPa·s
- viscosity (313.15 K, 101.3 kPa, x1 = 0.14): 1.46 ± 0.04 mPa·s
- viscosity (313.15 K, 101.3 kPa, x1 = 0.16): 1.61 ± 0.04 mPa·s
- viscosity (313.15 K, 101.3 kPa, x1 = 0.19): 1.8 ± 0.05 mPa·s
- viscosity (313.15 K, 101.3 kPa, x1 = 0.22): 2.04 ± 0.05 mPa·s
- viscosity (313.15 K, 101.3 kPa, x1 = 0.3): 2.54 ± 0.07 mPa·s
- viscosity (313.15 K, 101.3 kPa, x1 = 0.4): 3.4 ± 0.09 mPa·s
- viscosity (313.15 K, 101.3 kPa, x1 = 0.54): 4.58 ± 0.12 mPa·s
- viscosity (313.15 K, 101.3 kPa, x1 = 0.72): 6.53 ± 0.17 mPa·s
- viscosity (323.15 K, 101.3 kPa, x1 = 0.031): 0.67 ± 0.02 mPa·s
- viscosity (323.15 K, 101.3 kPa, x1 = 0.068): 0.82 ± 0.02 mPa·s
- viscosity (323.15 K, 101.3 kPa, x1 = 0.11): 0.9 ± 0.02 mPa·s
- viscosity (323.15 K, 101.3 kPa, x1 = 0.14): 1.21 ± 0.03 mPa·s
- viscosity (323.15 K, 101.3 kPa, x1 = 0.16): 1.3 ± 0.03 mPa·s
- viscosity (323.15 K, 101.3 kPa, x1 = 0.19): 1.44 ± 0.04 mPa·s
- viscosity (323.15 K, 101.3 kPa, x1 = 0.22): 1.62 ± 0.04 mPa·s
- viscosity (323.15 K, 101.3 kPa, x1 = 0.26): 1.81 ± 0.05 mPa·s
- viscosity (323.15 K, 101.3 kPa, x1 = 0.3): 1.97 ± 0.05 mPa·s
- viscosity (323.15 K, 101.3 kPa, x1 = 0.4): 2.59 ± 0.07 mPa·s
- viscosity (323.15 K, 101.3 kPa, x1 = 0.54): 3.46 ± 0.09 mPa·s
- viscosity (323.15 K, 101.3 kPa, x1 = 0.72): 4.83 ± 0.13 mPa·s
